Patent publication US11306123B2, “Heterotandem bicyclic peptide complex” (BicycleTx Limited, priority 2019, dated 2022)
Where two headings read alike, the source gives them in different places.

Tests used:
[1] = Pharmacokinetics in SD Rats; type: in vivo, rat
Description: 3. Pharmacokinetics of the Nectin-4/CD137 Heterotandem BCY11863 in SD Rats
Male SD Rats were dosed with the Nectin-4/CD137 heterotandem BCY11863 formulated in 25 mM Histidine HCl, 10% sucrose pH 7 by IV bolus, IV infusion (15 minutes) or subcutaneously. Serial bleeding (about 80 μL blood/time point) was performed via submandibular or saphenous vein at each time point. All blood samples were immediately transferred into prechilled microcentrifuge tubes containing 2 μL K2-EDTA (0.5M) as anti-coagulant and placed on wet ice. Blood samples were immediately processed for plasma by centrifugation at approximately 4° C., 3000 g. The precipitant including internal standard was immediately added into the plasma, mixed well and centrifuged at 12,000 rpm, 4° C. for 10 minutes. The supernatant was transferred into pre-labeled polypropylene microcentrifuge tubes, and then quick-frozen over dry ice. The samples were stored at […] or below as needed until analysis. 7.5 μL of the supernatant samples were directly injected for LC-MS/MS analysis using an Orbitrap Q Exactive in positive ion mode to determine the concentrations of analyte. Plasma concentration versus time data were analyzed by non-compartmental approaches using the Phoenix WinNonlin 6.3 software program. C0, CI, Vdss, T½, AUC(0-last), AUC(0-inf), MRT(0-last), MRT(0-inf) and graphs of plasma concentration versus time profile were reported.

cyno CD137 = molecular target: T1, cyno CD137 (Macaca fascicularis, UniProt A9YYE7); test: SPR, biotinylated analogue captured on chip, binding to CD137 extracellular domain
T1 construct: extracellular domain: SPR data
T1 sequence (A9YYE7 24-186): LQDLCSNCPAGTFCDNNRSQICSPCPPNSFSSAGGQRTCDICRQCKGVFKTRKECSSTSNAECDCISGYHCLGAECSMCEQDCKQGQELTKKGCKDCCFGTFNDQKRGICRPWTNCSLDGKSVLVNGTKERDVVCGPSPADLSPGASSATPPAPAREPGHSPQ

[2] = tested on: 5484 full-length human plasma membrane proteins and secreted proteins expressed in HEK293 cells; test: Retrogenix cell microarray off-target screening; type: binding; details: 1 μM test peptide
Description: Retrogenix microarray screening: Retrogenix's cell microarray technology was used to screen for specific off-target binding interactions of a biotinylated BCY11863 known as BCY13582.
Under these conditions, the test peptide was screened for binding against human HEK293 cells, individually expressing 5484 full-length human plasma membrane proteins and secreted proteins.
Each primary hit was re-expressed, along with two control receptors (TGFBR2 and EGFR), and re-tested with 1 μM BCY13582 test peptide, 1 μM BCY13582 test peptide in the presence of 100 μM BCY11863, and other positive and negative control treatments (FIG. 4). […] These were untethered and tethered forms of Nectin-4, and CD137—the primary targets.

human CD137 = molecular target: T2, human CD137 (Homo sapiens, UniProt Q07011); test: SPR, biotinylated analogue captured on chip, binding to CD137 extracellular domain
T2 construct: extracellular domain: SPR data
T2 sequence (Q07011 24-186 limits assumed): as the sequence (A9YYE7 24-186) above, with L4P, S19N, K50R, I66T, S67P, Y69F, E75G, A149V counted along it

[3] = in vivo, SD rat plasma, analyte after 100 mg/kg IV BCY11863
[4] = in vivo, SD rat plasma, analyte after 100 mg/kg IV BCY11863, read-out: T1/2 (converted)

Row | SMILES | Conversion to BCY14602 ([1]; SD rats, IV 100 mg/kg, first 24 h of the study) | Fraction metabolized to BCY15155 ([1]; SD rats, IV administration, 100 mg/kg) [%] | AUC [1, 3] [ng·h/mL] | Cmax [1, 3] [µg/mL] | half-life [1, 4] [h] | clearance ([1]; in vivo, SD rat, 100 mg/kg IV BCY11863, read-out: Clp) [mL/min/kg] | half-life ([1]; rat, in vivo, SD rats, 3.2 mg/kg IV Inf (15 min), read-out: T½ (converted)) [h] | half-life ([1]; rat, in vivo, SD rats, 6.3 mg/kg Sc, read-out: T½ (converted)) [h] | Kd (cyno CD137) [nM] | Specific off-target interactions [2] | Kd (human CD137) [nM]
1 | CCCC[C@@H]1NC(=O)[C@H](Cc2ccc(O)cc2)NC(=O)[C@@H]2CCCN2C(=O)[C@H](CC(=O)O)NC(=O)[C@H](C)NC(=O)[C@H](Cc2ccccc2)NC(=O)[C@@H]2CSCCC(=O)N3CN(CN(C3)C(=O)CCSC[C@@H](C(=O)N[C@@H](C)C(N)=O)NC1=O)C(=O)CCSC[C@H](NC(C)=O)C(=O)N[C@@H](CC(C)(C)C)C(=O)N1CCC[C@H]1C(=O)N[C@@H](CCC(=O)O)C(=O)N[C@H](CCCCNC(=O)CCc1cn(CCOCCOCCOCCN(CCOCCOCCOCCC(=O)N[C@H]3CSCCC(=O)N4CN5CN(C4)C(=O)CCSC[C@H](NC(=O)[C@@H](CC(=O)O)NC(=O)[C@H](Cc4cccc6ccccc46)NC(=O)[C@@H]4CCCN4C3=O)C(=O)N[C@@H](CCSC)C(=O)N[C@@H](CCCCNC(=N)N)C(=O)N[C@@H](CC(=O)O)C(=O)N[C@@H](Cc3c[nH]c4ccccc34)C(=O)N[C@@H](CO)C(=O)N[C@@H]([C@@H](C)O)C(=O)N3CCC[C@H]3C(=O)N3C[C@H](O)C[C@H]3C(=O)N[C@@H](Cc3c[nH]c4ccccc34)C(=O)N[C@H](C(N)=O)CSCCC5=O)CCOCCOCCOCCn3cc(CCC(=O)NCCCC[C@H]4NC(=O)[C@H](CCC(=O)O)NC(=O)[C@@H]5CCCN5C(=O)[C@H](CC(C)(C)C)NC(=O)[C@@H](NC(C)=O)CSCCC(=O)N5CN6CN(C5)C(=O)CCSC[C@H](NC(=O)[C@H](Cc5ccc(O)cc5)NC(=O)[C@@H]5CCCN5C4=O)C(=O)N[C@@H](Cc4ccccc4)C(=O)N[C@@H](C)C(=O)N[C@@H](CC(=O)O)C(=O)N4CCC[C@H]4C(=O)N[C@@H](Cc4ccc(O)cc4)C(=O)N[C@@H](CCCC)C(=O)N[C@H](C(=O)N[C@@H](C)C(N)=O)CSCCC6=O)nn3)nn1)C(=O)N1CCC[C@H]1C(=O)N[C@@H](Cc1ccc(O)cc1)C(=O)N2 [BCY11863] | No significant conversion to BCY14602 | < 1 | 130000 | 280 | 5.4 | 13 | 3.1 | 2.5 |  |  | 
2 | CCCC[C@@H]1NC(=O)[C@H](Cc2ccc(O)cc2)NC(=O)[C@@H]2CCCN2C(=O)[C@H](CC(=O)O)NC(=O)[C@H](C)NC(=O)[C@H](Cc2ccccc2)NC(=O)[C@@H]2CSCCC(=O)N3CN(CN(C3)C(=O)CCSC[C@@H](C(=O)N[C@@H](C)C(N)=O)NC1=O)C(=O)CCSC[C@H](NC(C)=O)C(=O)N[C@@H](CC(C)(C)C)C(=O)N1CCC[C@H]1C(=O)N[C@@H](CCC(=O)O)C(=O)N[C@H](CCCCNC(=O)CCc1cn(CCOCCOCCOCCN(CCOCCOCCOCCC(=O)N[C@H]3CSCCC(=O)N4CN5CN(C4)C(=O)CCSC[C@H](NC(=O)[C@@H](CC(=O)O)NC(=O)[C@H](Cc4cccc6ccccc46)NC(=O)[C@@H]4CCCN4C3=O)C(=O)N[C@@H](CCSC)C(=O)N[C@@H](CCCCNC(=N)N)C(=O)N[C@@H](CC(=O)O)C(=O)N[C@@H](Cc3c[nH]c4ccccc34)C(=O)N[C@@H](CO)C(=O)N[C@@H]([C@@H](C)O)C(=O)N3CCC[C@H]3C(=O)N3C[C@H](O)C[C@H]3C(=O)N[C@@H](Cc3c[nH]c4ccccc34)C(=O)N[C@H](C(N)=O)CSCCC5=O)CCOCCOCCOCCn3cc(CCC(=O)NCCCC[C@H]4NC(=O)[C@H](CCC(=O)O)NC(=O)[C@@H]5CCCN5C(=O)[C@H](CC(C)(C)C)NC(=O)[C@@H](N)CSCCC(=O)N5CN6CN(C5)C(=O)CCSC[C@H](NC(=O)[C@H](Cc5ccc(O)cc5)NC(=O)[C@@H]5CCCN5C4=O)C(=O)N[C@@H](Cc4ccccc4)C(=O)N[C@@H](C)C(=O)N[C@@H](CC(=O)O)C(=O)N4CCC[C@H]4C(=O)N[C@@H](Cc4ccc(O)cc4)C(=O)N[C@@H](CCCC)C(=O)N[C@H](C(=O)N[C@@H](C)C(N)=O)CSCCC6=O)nn3)nn1)C(=O)N1CCC[C@H]1C(=O)N[C@@H](Cc1ccc(O)cc1)C(=O)N2 [BCY15155] |  |  | 1300 | 2.85 | 3.1 |  |  |  |  |  | 
3 | CCCC[C@@H]1NC(=O)[C@H](Cc2ccc(O)cc2)NC(=O)[C@@H]2CCCN2C(=O)[C@H](CC(=O)O)NC(=O)[C@H](C)NC(=O)[C@H](Cc2ccccc2)NC(=O)[C@@H]2CSCCC(=O)N3CN(CN(C3)C(=O)CCSC[C@@H](C(=O)N[C@@H](C)C(N)=O)NC1=O)C(=O)CCSC[C@H](NC(C)=O)C(=O)N[C@@H](CC(C)(C)C)C(=O)N1CCC[C@H]1C(=O)N[C@@H](CCC(=O)O)C(=O)N[C@H](CCCCNC(=O)CCc1cn(CCOCCOCCOCCN(CCOCCOCCOCCC(=O)N[C@H]3CSCCC(=O)N4CN5CN(C4)C(=O)CCSC[C@H](NC(=O)[C@@H](CC(=O)O)NC(=O)[C@H](Cc4cccc6ccccc46)NC(=O)[C@@H]4CCCN4C3=O)C(=O)N[C@@H](CCSC)C(=O)N[C@@H](CCCCNC(=N)N)C(=O)N[C@@H](CC(=O)O)C(=O)N[C@@H](Cc3c[nH]c4ccccc34)C(=O)N[C@@H](CO)C(=O)N[C@@H]([C@@H](C)O)C(=O)N3CCC[C@H]3C(=O)N3C[C@H](O)C[C@H]3C(=O)N[C@@H](Cc3c[nH]c4ccccc34)C(=O)N[C@H](C(N)=O)CSCCC5=O)CCOCCOCCOCCn3cc(CCC(=O)NCCCC[C@H]4NC(=O)[C@H](CCC(=O)O)NC(=O)[C@@H]5CCCN5C(=O)[C@H](CC(C)(C)C)NC(=O)[C@@H](NC(C)=O)CSCCC(=O)N5CN6CN(C5)C(=O)CCSC[C@H](NC(=O)[C@H](Cc5ccc(O)cc5)NC(=O)[C@@H]5CCCN5C4=O)C(=O)N[C@@H](Cc4ccccc4)C(=O)N[C@@H](C)C(=O)N[C@@H](CC(=O)O)C(=O)N4CCC[C@H]4C(=O)N[C@@H](Cc4ccc(O)cc4)C(=O)N[C@@H](CCCC)C(=O)N[C@H](C(=O)N[C@@H](CCCCNC(=O)CCOCCOCCOCCOCCOCCOCCOCCOCCOCCOCCOCCOCCNC(=O)CCCC[C@@H]4SC[C@@H]5NC(=O)N[C@@H]54)C(N)=O)CSCCC6=O)nn3)nn1)C(=O)N1CCC[C@H]1C(=O)N[C@@H](Cc1ccc(O)cc1)C(=O)N2 [BCY13582] |  |  |  |  |  |  |  |  | 4.23 | No specific off-target interactions were identified | 8.4 ± 4.2
